How the values were obtained:
[1] = Solubility in aqueous medium; assay type: physicochemical; settings: precipitation observed when DMSO solution was diluted with HBSS
[2] = system: A549 cells; settings: toxic at this concentration or higher, ref Zhu et al., 2020; cited from earlier work

For CC(C)(C)c1cc(C(C)(C)C)c(NC(=O)c2c[nH]c3ccccc3c2=O)cc1O [ivacaftor, Ivacaftor], the “Solubility in aqueous medium” value [1] is listed as “very low solubility” and the “Concentration toxic to A549 cells” value [2] is listed as at least 8000 ng/mL.
